Columns and labels:
Assay in all cases: radiometric 33PanQinase protein kinase assay
Format in all cases: biochemical
Details in all cases: 1 µM ATP
INS-R = biological target: T1, INS-R (Homo sapiens, UniProt P06213)
T1 construct: host or cells: Sf9 (baculovirus)

PLK1 = biological target: T2, PLK1 (Homo sapiens, UniProt P53350)
T2 construct: host or cells: Sf9 (baculovirus)

ARK5 = biological target: T3, ARK5 (Homo sapiens, UniProt O60285)
T3 construct: host or cells: Sf9 (baculovirus)

FLT3 = biological target: T4, FLT3 (Homo sapiens, UniProt P36888)
T4 construct: host or cells: Sf9 (baculovirus)

SRC = biological target: T5, SRC (Homo sapiens, UniProt P12931)
T5 construct: host or cells: Sf9 (baculovirus)
T5 sequence (P12931 whole entry): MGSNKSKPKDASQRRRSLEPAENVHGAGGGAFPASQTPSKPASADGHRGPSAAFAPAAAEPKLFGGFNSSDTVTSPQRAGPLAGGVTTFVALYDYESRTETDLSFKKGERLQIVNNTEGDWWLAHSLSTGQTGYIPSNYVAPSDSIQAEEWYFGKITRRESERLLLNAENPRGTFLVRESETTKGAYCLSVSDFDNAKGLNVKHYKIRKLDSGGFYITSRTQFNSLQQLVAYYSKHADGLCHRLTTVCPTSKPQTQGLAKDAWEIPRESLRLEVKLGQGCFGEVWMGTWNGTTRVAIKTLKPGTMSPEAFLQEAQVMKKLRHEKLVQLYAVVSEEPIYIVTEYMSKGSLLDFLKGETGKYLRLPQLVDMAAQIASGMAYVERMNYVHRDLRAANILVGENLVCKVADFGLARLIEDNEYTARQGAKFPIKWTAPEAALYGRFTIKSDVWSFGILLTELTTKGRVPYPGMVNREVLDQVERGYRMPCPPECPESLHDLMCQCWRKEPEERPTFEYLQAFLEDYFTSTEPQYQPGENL

PAK4 = biological target: T6, PAK4 (Homo sapiens, UniProt O96013)
T6 construct: host or cells: Sf9 (baculovirus)
T6 sequence (O96013 whole entry): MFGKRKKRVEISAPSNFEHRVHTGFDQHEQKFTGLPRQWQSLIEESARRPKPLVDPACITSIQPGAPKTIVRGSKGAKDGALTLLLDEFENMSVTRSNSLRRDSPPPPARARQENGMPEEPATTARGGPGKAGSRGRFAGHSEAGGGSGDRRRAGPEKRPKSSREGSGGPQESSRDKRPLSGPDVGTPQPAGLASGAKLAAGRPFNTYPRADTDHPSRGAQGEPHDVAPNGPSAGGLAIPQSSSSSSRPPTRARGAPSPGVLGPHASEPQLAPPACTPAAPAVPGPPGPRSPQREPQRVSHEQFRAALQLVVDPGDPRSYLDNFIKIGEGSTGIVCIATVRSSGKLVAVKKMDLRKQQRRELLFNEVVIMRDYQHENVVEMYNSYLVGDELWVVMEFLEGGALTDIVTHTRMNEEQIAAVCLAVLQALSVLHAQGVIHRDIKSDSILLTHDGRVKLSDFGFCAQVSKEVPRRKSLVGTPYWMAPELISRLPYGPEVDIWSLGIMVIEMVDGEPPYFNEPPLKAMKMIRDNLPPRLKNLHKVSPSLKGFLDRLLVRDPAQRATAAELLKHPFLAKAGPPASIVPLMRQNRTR

IGF1-R = biological target: T7, IGF1-R (Homo sapiens, UniProt P08069)
T7 construct: host or cells: Sf9 (baculovirus)
T7 sequence (P08069 31-1367): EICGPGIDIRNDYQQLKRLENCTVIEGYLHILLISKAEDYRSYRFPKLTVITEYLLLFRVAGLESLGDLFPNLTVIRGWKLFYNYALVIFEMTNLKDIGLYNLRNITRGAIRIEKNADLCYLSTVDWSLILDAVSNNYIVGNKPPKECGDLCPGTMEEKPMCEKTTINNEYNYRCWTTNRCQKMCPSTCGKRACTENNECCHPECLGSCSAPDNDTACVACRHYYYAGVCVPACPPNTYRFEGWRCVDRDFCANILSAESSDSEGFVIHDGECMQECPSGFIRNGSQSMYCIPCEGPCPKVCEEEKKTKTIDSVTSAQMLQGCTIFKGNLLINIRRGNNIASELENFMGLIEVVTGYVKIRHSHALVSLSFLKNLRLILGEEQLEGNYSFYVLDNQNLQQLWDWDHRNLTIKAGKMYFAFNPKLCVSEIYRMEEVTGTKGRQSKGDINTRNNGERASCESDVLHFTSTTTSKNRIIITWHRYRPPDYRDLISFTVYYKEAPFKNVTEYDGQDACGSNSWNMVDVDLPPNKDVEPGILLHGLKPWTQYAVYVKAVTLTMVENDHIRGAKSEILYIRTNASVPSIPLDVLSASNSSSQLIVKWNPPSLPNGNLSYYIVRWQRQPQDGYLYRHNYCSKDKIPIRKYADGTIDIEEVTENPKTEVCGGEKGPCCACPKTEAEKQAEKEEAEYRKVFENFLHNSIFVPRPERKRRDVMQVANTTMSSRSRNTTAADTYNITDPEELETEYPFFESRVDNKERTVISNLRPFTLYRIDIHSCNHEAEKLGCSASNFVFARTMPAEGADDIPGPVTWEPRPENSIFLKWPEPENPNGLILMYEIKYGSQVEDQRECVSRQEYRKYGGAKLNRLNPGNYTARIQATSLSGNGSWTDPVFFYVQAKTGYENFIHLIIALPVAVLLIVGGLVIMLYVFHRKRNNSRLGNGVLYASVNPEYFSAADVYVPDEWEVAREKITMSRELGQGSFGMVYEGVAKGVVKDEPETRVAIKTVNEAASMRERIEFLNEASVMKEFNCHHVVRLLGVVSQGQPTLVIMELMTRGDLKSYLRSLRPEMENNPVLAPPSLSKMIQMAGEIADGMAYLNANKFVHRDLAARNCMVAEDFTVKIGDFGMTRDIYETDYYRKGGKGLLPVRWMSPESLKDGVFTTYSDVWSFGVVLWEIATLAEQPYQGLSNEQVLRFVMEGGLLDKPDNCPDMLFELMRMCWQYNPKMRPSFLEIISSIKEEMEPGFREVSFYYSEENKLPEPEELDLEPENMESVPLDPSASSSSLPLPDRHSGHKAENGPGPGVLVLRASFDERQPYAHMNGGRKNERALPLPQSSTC

EPHB4 = biological target: T8, EPHB4 (Homo sapiens, UniProt P54760)
T8 construct: host or cells: Sf9 (baculovirus)

MET = biological target: T9, MET (Homo sapiens, UniProt P08581)
T9 construct: host or cells: Sf9 (baculovirus)
T9 sequence (P08581 25-1390): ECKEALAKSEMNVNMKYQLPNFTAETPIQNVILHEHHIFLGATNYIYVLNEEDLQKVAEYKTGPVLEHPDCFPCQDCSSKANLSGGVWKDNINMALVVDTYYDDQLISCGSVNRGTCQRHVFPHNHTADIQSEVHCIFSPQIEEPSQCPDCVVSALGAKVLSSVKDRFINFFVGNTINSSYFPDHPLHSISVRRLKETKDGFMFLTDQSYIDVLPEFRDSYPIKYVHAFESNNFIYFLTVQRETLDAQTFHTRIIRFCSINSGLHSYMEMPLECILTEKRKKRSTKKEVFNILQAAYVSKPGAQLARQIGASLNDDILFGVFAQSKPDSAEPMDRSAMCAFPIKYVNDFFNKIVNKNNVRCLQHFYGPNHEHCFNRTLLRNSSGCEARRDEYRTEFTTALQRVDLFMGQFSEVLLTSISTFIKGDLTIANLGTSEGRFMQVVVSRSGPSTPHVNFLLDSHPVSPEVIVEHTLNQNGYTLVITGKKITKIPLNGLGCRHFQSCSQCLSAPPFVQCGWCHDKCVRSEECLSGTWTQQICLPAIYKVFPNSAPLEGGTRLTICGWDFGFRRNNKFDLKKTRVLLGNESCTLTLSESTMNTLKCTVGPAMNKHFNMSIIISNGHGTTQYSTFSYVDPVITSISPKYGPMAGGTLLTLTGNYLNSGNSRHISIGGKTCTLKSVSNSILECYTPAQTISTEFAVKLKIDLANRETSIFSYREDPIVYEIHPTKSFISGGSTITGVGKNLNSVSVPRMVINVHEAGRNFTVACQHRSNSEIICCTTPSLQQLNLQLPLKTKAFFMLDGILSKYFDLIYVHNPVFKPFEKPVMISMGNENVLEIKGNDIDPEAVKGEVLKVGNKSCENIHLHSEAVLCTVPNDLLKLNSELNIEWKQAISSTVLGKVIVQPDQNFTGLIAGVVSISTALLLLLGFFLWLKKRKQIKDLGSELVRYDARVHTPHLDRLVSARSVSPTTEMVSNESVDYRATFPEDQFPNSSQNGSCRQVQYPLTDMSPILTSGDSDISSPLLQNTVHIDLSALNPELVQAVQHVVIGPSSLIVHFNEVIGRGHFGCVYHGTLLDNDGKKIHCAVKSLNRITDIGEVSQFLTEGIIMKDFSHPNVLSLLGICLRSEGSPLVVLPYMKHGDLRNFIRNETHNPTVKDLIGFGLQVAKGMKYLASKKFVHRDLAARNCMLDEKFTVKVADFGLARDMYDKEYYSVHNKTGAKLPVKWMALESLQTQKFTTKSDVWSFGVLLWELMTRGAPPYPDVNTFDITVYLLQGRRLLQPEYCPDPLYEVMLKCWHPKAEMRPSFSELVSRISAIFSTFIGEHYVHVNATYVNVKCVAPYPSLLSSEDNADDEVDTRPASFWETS

CDK4/CycD1 = biological target: T10, CDK4/CycD1 (Homo sapiens, UniProt P11802)
T10 construct: host or cells: Sf9 (baculovirus)

TIE2 = biological target: T11, TIE2 (Homo sapiens, UniProt Q02763)
T11 construct: host or cells: Sf9 (baculovirus)

AKT1 = biological target: T12, AKT1 (Homo sapiens, UniProt P31749)
T12 construct: host or cells: Sf9 (baculovirus)

CDK2/CycA = biological target: T13, CDK2/CycA (Homo sapiens, UniProt P24941)
T13 construct: host or cells: Sf9 (baculovirus)

FAK = biological target: T14, FAK (Homo sapiens, UniProt Q05397)
T14 construct: host or cells: Sf9 (baculovirus)

T1 sequence (P06213 980-1382 limits assumed): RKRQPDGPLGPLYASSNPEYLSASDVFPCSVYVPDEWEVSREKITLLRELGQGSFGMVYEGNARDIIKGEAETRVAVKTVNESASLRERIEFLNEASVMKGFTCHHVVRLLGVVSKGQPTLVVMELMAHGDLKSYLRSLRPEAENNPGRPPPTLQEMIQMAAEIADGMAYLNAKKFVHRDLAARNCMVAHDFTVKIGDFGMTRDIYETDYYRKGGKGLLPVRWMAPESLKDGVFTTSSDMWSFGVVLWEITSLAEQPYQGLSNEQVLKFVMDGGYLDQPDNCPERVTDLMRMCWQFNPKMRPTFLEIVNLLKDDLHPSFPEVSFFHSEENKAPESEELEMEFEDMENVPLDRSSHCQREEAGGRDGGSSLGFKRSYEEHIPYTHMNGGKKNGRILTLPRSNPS
T3 sequence (O60285 whole entry): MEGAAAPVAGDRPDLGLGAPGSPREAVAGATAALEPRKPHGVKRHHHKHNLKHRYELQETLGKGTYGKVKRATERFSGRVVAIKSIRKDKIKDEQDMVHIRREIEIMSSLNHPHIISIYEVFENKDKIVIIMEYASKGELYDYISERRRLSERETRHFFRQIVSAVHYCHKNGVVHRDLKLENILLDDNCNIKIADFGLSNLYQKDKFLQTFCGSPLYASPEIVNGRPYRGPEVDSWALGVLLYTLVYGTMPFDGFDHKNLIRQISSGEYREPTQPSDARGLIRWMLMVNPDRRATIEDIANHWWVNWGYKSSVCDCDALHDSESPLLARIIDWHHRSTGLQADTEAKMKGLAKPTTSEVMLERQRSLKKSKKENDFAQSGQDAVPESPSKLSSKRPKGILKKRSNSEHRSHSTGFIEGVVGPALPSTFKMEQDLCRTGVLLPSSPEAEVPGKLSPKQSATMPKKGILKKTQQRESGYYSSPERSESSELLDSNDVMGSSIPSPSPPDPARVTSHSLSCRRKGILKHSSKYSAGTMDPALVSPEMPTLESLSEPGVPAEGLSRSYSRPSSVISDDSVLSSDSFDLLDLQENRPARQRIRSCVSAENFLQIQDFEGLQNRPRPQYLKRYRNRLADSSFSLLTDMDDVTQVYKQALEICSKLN

- IC50 (INS-R): > 100 µM
- IC50 (PLK1): > 100 µM
- IC50 (ARK5): > 100 µM
- IC50 (FLT3): 16 µM
- IC50 (SRC): 74 µM
- IC50 (PAK4): > 100 µM
- IC50 (IGF1-R): > 100 µM
- IC50 (EPHB4): > 100 µM
- IC50 (MET): > 100 µM
- IC50 (CDK4/CycD1): 19 µM
- IC50 (TIE2): 19 µM
- IC50 (AKT1): > 100 µM
- IC50 (CDK2/CycA): 60 µM
- IC50 (FAK): > 100 µM
SMILES: O=C1CCCc2cc(-c3ccnc(Nc4ccccc4)n3)ccc2N1 [Compound 2a, 7-(2-Anilinopyrimidin-4-yl)-1,3,4,5-tetrahydro-2H-1-benzazepin-2-one]

— article PMC7998669, “7-(2-Anilinopyrimidin-4-yl)-1-benzazepin-2-ones Designed by a “Cut and Glue” Strategy Are Dual Aurora A/VEGF-R Kinase Inhibitors” (Molecules, 2021)
